Laboratory results: the CheMixHub viscosity set

Assay: xn = mol fraction of the nth substance listed

C1CCCC1 + CCCO
101.3 kPa
Conditions | viscosity [mPa·s]
298.15 K, x1 = 0.0126 | 1.899
298.15 K, x1 = 0.0784 | 1.708
298.15 K, x1 = 0.1149 | 1.602
298.15 K, x1 = 0.1574 | 1.49
298.15 K, x1 = 0.1979 | 1.385
298.15 K, x1 = 0.2531 | 1.254
298.15 K, x1 = 0.289 | 1.17
298.15 K, x1 = 0.3309 | 1.085
298.15 K, x1 = 0.3663 | 1.017
298.15 K, x1 = 0.3847 | 0.982
298.15 K, x1 = 0.3986 | 0.959
298.15 K, x1 = 0.4161 | 0.924
298.15 K, x1 = 0.4387 | 0.888
298.15 K, x1 = 0.4706 | 0.839
298.15 K, x1 = 0.4885 | 0.807
298.15 K, x1 = 0.5064 | 0.781
298.15 K, x1 = 0.5132 | 0.772
298.15 K, x1 = 0.5396 | 0.739
298.15 K, x1 = 0.5459 | 0.726
298.15 K, x1 = 0.557 | 0.709
298.15 K, x1 = 0.563 | 0.703
298.15 K, x1 = 0.5899 | 0.673
298.15 K, x1 = 0.6188 | 0.639
298.15 K, x1 = 0.6413 | 0.615
298.15 K, x1 = 0.6734 | 0.587
298.15 K, x1 = 0.7116 | 0.552
298.15 K, x1 = 0.7421 | 0.529
298.15 K, x1 = 0.7853 | 0.497
298.15 K, x1 = 0.8171 | 0.478
298.15 K, x1 = 0.8537 | 0.458
298.15 K, x1 = 0.9793 | 0.412
308.15 K, x1 = 0.0566 | 1.511
308.15 K, x1 = 0.0958 | 1.374
308.15 K, x1 = 0.1491 | 1.257
308.15 K, x1 = 0.1968 | 1.105
308.15 K, x1 = 0.2217 | 0.997
308.15 K, x1 = 0.2344 | 0.927
308.15 K, x1 = 0.2399 | 0.886
308.15 K, x1 = 0.2558 | 0.874
308.15 K, x1 = 0.2708 | 0.851
308.15 K, x1 = 0.2943 | 0.815
308.15 K, x1 = 0.3274 | 0.772
308.15 K, x1 = 0.3677 | 0.719
308.15 K, x1 = 0.4171 | 0.659
308.15 K, x1 = 0.4901 | 0.582
308.15 K, x1 = 0.5698 | 0.516
308.15 K, x1 = 0.6573 | 0.457
308.15 K, x1 = 0.7599 | 0.415
308.15 K, x1 = 0.8996 | 0.392
318.15 K, x1 = 0.0747 | 1.139
318.15 K, x1 = 0.1126 | 1.074
318.15 K, x1 = 0.2293 | 0.876
318.15 K, x1 = 0.2845 | 0.769
318.15 K, x1 = 0.3533 | 0.654
318.15 K, x1 = 0.4 | 0.597
318.15 K, x1 = 0.4414 | 0.539
318.15 K, x1 = 0.4892 | 0.491
318.15 K, x1 = 0.4949 | 0.484
318.15 K, x1 = 0.5432 | 0.445
318.15 K, x1 = 0.5458 | 0.443
318.15 K, x1 = 0.5813 | 0.429
318.15 K, x1 = 0.6285 | 0.412
318.15 K, x1 = 0.6942 | 0.407
318.15 K, x1 = 0.7867 | 0.402
318.15 K, x1 = 0.8912 | 0.393

NCCO + CCCO
viscosity [mPa·s], 101.3 kPa
Conditions | x1 = 0.0998 | x1 = 0.1999 | x1 = 0.3005 | x1 = 0.4 | x1 = 0.5 | x1 = 0.6 | x1 = 0.7 | x1 = 0.8 | x1 = 0.9
303.15 K | 2.09 | 2.56 | 3.17 | 3.97 | 4.94 | 6.22 | 7.7 | 9.64 | 12
313.15 K | 1.66 | 2 | 2.42 | 2.97 | 3.63 | 4.44 | 5.41 | 6.62 | 8.11
323.15 K | 1.35 | 1.59 | 1.92 | 2.3 | 2.75 | 3.31 | 3.93 | 4.73 | 5.69

OCc1ccccc1 + CCCO
viscosity [mPa·s], 101 kPa
Conditions | x1 = 0.0744 | x1 = 0.1531 | x1 = 0.2366 | x1 = 0.3252 | x1 = 0.4196 | x1 = 0.5203 | x1 = 0.6278 | x1 = 0.7431 | x1 = 0.8668
298.15 K | 2.038 | 2.197 | 2.401 | 2.651 | 2.932 | 3.25 | 3.593 | 3.99 | 4.433
303.15 K | 1.796 | 1.918 | 2.083 | 2.288 | 2.52 | 2.783 | 3.071 | 3.404 | 3.776
308.15 K | 1.587 | 1.687 | 1.828 | 2.002 | 2.201 | 2.429 | 2.678 | 2.967 | 3.292
313.15 K | 1.368 | 1.447 | 1.562 | 1.709 | 1.877 | 2.07 | 2.282 | 2.53 | 2.807

NCCO + CCO
viscosity [mPa·s], 100 kPa
Conditions | x1 = 0.1 | x1 = 0.2 | x1 = 0.3 | x1 = 0.4 | x1 = 0.5 | x1 = 0.6 | x1 = 0.7 | x1 = 0.8 | x1 = 0.9
303.15 K | 1.33 | 1.73 | 2.3 | 3.05 | – | 5.37 | 7.03 | – | 11.6
313.15 K | 1.11 | 1.42 | 1.83 | 2.34 | 3.05 | 3.93 | 5.03 | 6.32 | 7.87
323.15 K | 0.967 | 1.19 | 1.47 | 1.85 | 2.34 | 2.95 | 3.7 | 4.54 | 5.57

CCC(=O)CC + CCOC(=O)OCC
viscosity [mPa·s], 101 kPa
Conditions | x2 = 0.0893 | x2 = 0.1498 | x2 = 0.2601 | x2 = 0.3555 | x2 = 0.4667 | x2 = 0.5689 | x2 = 0.6701 | x2 = 0.7565 | x2 = 0.8858 | x2 = 0.9501
303.15 K | 0.452 | 0.468 | 0.496 | 0.521 | 0.55 | 0.578 | 0.606 | 0.631 | 0.668 | 0.686
308.15 K | 0.417 | 0.431 | 0.457 | 0.481 | 0.509 | 0.535 | 0.563 | 0.586 | 0.622 | 0.641
313.15 K | 0.405 | 0.417 | 0.439 | 0.459 | 0.484 | 0.508 | 0.532 | 0.554 | 0.589 | 0.607

NCCO + CN1CCCC1=O
viscosity [mPa·s], 101 kPa
Conditions | 293.15 K | 298.15 K | 303.15 K | 308.15 K | 313.15 K | 318.15 K | 323.15 K
x1 = 0.1558 | 2.99 | 2.712 | 2.484 | 2.293 | 2.133 | 1.996 | –
x1 = 0.3001 | 3.547 | 3.176 | 2.869 | 2.612 | 2.397 | 2.218 | 2.065
x1 = 0.4204 | 4.72 | 4.121 | 3.633 | 3.236 | 2.909 | 2.638 | 2.415
x2 = 0.2076 | – | – | 10.07 | – | 6.755 | – | 5.018
x2 = 0.4003 | – | – | 6.647 | – | 4.811 | – | 3.622
x2 = 0.5994 | – | – | 4.361 | – | 3.317 | – | 2.559
x2 = 0.7992 | – | – | 2.604 | – | 2.118 | – | 1.799
